Data from PubChem BioAssay AID1918937 (Molecular Pharmacology Branch, DTP, NCI, 2023).
“And” between values parts separate entries of the source, which are not always exact repeats. Identical values can stand only once. One block for each molecule: values may come before it.

Test system: 521955-158-R2-J5-PDC complex spheroid viability
Assay: Anticancer human tumor 521955-158-R2-J5-PDC patient-derived pancreatic carcinoma cell line growth inhibition
Conditions: for viability, T/C: stronger effect = lower value
Excerpt: Multicellular complex tumor spheroid response to LSD1 Inhibitor Iadademstat in combination with a variety of drugs and investigational agents in selected tumor cell lines
The current study was undertaken to assess response to LSD1 inhibitors in combination with standard-of-care drugs and investigational agents in solid tumor complex spheroid models as well as in the K-562 leukemia. Complex spheroids include a stromal component modeled by human endothelial cells (HUVEC) and fibroblasts modeled by human mesenchymal stem cells (MSCs). The concentration ranges selected for each drug and investigational agent were based upon clinically achievable concentrations if the clinical Cmax of the agent was known.
Compounds. The drugs and investigational agents used in this study are listed on Table 1. All of the agents used, including staurosporine (NSC755774) and gemcitabine (NSC613327), were obtained from the Developmental Therapeutics Program, NCI. FDA-approved anticancer drugs are available from the NCI at http://dtp.nci.nih.gov/branches/dscb/oncology_drugset_explanation.html. Drugs and investigational agents were >95% pure by proton nuclear magnetic resonance (NMR) and liquid chromatography/mass spectrometry (LC/MS). Stock solutions were prepared at 400x in DMSO, stored at -70 degrees C, and diluted in fresh medium prior to their use. The final concentration of DMSO in cell culture wells never exceeded 0.25% (v/v). The FDA-approved anticancer drug set is available from the Developmental Therapeutics Program at https://dtp.cancer.gov/organization/dscb/obtaining/available_plates.htm. All drugs and investigational agents were tested over a range starting from a high concentration at or near the clinical Cmax and decreasing in half-log increments. If the clinical Cmax for an agent had not been determined, the highest concentration tested was 10 microM.
Cell Lines. The patient-derived cancer cell (PDC) lines: 292921-168-R-J2-PDC, K24384-001-R-PDC, and 521955-158-R2-J5-PDC pancreatic carcinomas, 556581-035-R-J1 ovarian carcinoma, 324938-238-R-J1-PDC, 855422-203-R-J1-PDC and 883617-216-R-J1-PDC urothelial bladder carcinomas, 743489-274-T-PDC renal cell carcinoma, 138582-R-J1 Merkel cell tumor, K60290-347-R-J1 and K57222-313-R-J1-PDC glioblastomas, 653999-131-R-J2-PDC, LG0703-F948-PDC, and 349418-098-R-PDC non-small cell lung carcinomas, 885512-296-R-J2-PDC, 171881-019-R-J1-PDC breast carcinomas and 186277-243-T-J2-PDC and 233499-124-R-J2-PDC colon carcinomas were obtained from the NCI Patient-Derived Models Repository (PDMR, https://pdmr.cancer.gov). The established cell lines NCI/ADR-RES (RRID:CVCL_14520 and OVCAR-5 (RRID:CVCL_1628) ovarian carcinomas, 786-O (RRID:CVCL_1051) and A498 (RRID:CVCL_A498) renal cell carcinoma, NCI-H211 (ATCC, cat. CRL-5824; RRID:CVCL_1529), NCI-H196 (ATCC, cat. CRL-5823, RRID:CVCL_1509), SW 1271 (ATCC, cat. CRL-2177, RRID:CVCL_1716) and NCI-H1876 (ATCC, cat. CRL-5902, RRID:CVCL_1503) small cell lung carcinomas, MDA-MB-231 (RRID:CVCL_0062) and MDA-MB-468 (RRID:CVCL_0419)breast carcinomas (10-12). Pooled donor human umbilical vein endothelial cells (HUVEC, Lonza, cat. CC-2519) and human mesenchymal stem cells (hMSC, Lonza, cat. PT-2501) were purchased from Lonza (Walkersville, MD).
Cell Culture. All cells were maintained in an incubator at 37 degrees C and 5% CO2 with 95% humidity. The PDC lines were cultured according to standard operating procedures established by the NCI PDMR (https://pdmr.cancer.gov). Briefly all PDCs were thawed and cultured in Matrigel-coated flasks prepared with a working solution of 1X Ham's F-12 nutrient mix, without supplementation (Invitrogen, Waltham, MA, cat. 11765054), 100 U/mL penicillin-streptomycin (Invitrogen, cat. 15140122), and 2.5% Matrigel (Corning Inc., Corning, NY, cat. 354248) for the first three passages. […]

[1] = curve of first compound, second compound 0.1 µM
[2] = curve of first compound, second compound 0.316 µM
[3] = curve of first compound, second compound 1 µM
[4] = curve of first compound, second compound 3.16 µM
[5] = curve of first compound, second compound 10 µM
[6] = second compound 0.1 µM, first compound 0.0316 µM
[7] = second compound 0.1 µM, first compound 0.1 µM
[8] = second compound 0.1 µM, first compound 0.316 µM
[9] = second compound 0.1 µM, first compound 1 µM
[10] = second compound 0.1 µM, first compound 3.16 µM
[11] = second compound 0.1 µM, first compound 10 µM
[12] = second compound 0.316 µM, first compound 0.0316 µM
[13] = second compound 0.316 µM, first compound 0.1 µM
[14] = second compound 0.316 µM, first compound 0.316 µM
[15] = second compound 0.316 µM, first compound 1 µM
[16] = second compound 0.316 µM, first compound 3.16 µM
[17] = second compound 0.316 µM, first compound 10 µM
[18] = second compound 1 µM, first compound 0.0316 µM
[19] = second compound 1 µM, first compound 0.1 µM
[20] = second compound 1 µM, first compound 0.316 µM
[21] = second compound 1 µM, first compound 1 µM
[22] = second compound 1 µM, first compound 3.16 µM
[23] = second compound 1 µM, first compound 10 µM
[24] = second compound 3.16 µM, first compound 0.0316 µM
[25] = second compound 3.16 µM, first compound 0.1 µM
[26] = second compound 3.16 µM, first compound 0.316 µM
[27] = second compound 3.16 µM, first compound 1 µM
[28] = second compound 3.16 µM, first compound 3.16 µM
[29] = second compound 3.16 µM, first compound 10 µM
[30] = second compound 10 µM, first compound 0.0316 µM
[31] = second compound 10 µM, first compound 0.1 µM
[32] = second compound 10 µM, first compound 0.316 µM
[33] = second compound 10 µM, first compound 1 µM
[34] = second compound 10 µM, first compound 3.16 µM
[35] = second compound 10 µM, first compound 10 µM
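Also: spheroids exposed to agents for seven days.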
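For viability, T/C in this document: percent of DMSO vehicle control luminescence viability.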

IC50 (curve of compound): 0.00521 µM and 0.00617 µM
Structure (SMILES): CC[C@@]1(O)C(=O)OCc2c1cc1n(c2=O)Cc2cc3c(CN(C)C)c(O)ccc3nc2-1
viability, T/C (compound 0.000316 µM): 108% and 106% | viability, T/C (compound 0.001 µM): 109% and 103% | viability, T/C (compound 0.00316 µM): 77.4% and 85.3% | viability, T/C (compound 0.01 µM): 14.3% and 24.3% | viability, T/C (compound 0.0316 µM): 7.49% and 11.1% | viability, T/C (compound 0.1 µM): 6.01% and 6.55%

Structure (SMILES): CC1(C)CCC(CN2CCN(c3ccc(C(=O)NS(=O)(=O)c4ccc(NCC5CCOCC5)c([N+](=O)[O-])c4)c(Oc4cnc5[nH]ccc5c4)c3)CC2)=C(c2ccc(Cl)cc2)C1 + NC1CCC(NC2CC2c2ccccc2)CC1
IC50 [1]: 4.2 µM | IC50 [2]: 3.81 µM | IC50 [3]: 3.77 µM | IC50 [4]: 3.11 µM | IC50 [5]: 3.79 µM | viability, T/C [6]: 109% | viability, T/C [7]: 116% | viability, T/C [8]: 112% | viability, T/C [9]: 109% | viability, T/C [10]: 66.1% | viability, T/C [11]: 0.51% | viability, T/C [12]: 119% | viability, T/C [13]: 113% | viability, T/C [14]: 116% | viability, T/C [15]: 111% | viability, T/C [16]: 59.5% | viability, T/C [17]: 0.64% | viability, T/C [18]: 108% | viability, T/C [19]: 105% | viability, T/C [20]: 108% | viability, T/C [21]: 103% | viability, T/C [22]: 58.8% | viability, T/C [23]: 0.9% | viability, T/C [24]: 116% | viability, T/C [25]: 124% | viability, T/C [26]: 111% | viability, T/C [27]: 109% | viability, T/C [28]: 49% | viability, T/C [29]: 0.91% | viability, T/C [30]: 119% | viability, T/C [31]: 117% | viability, T/C [32]: 117% | viability, T/C [33]: 115% | viability, T/C [34]: 59.1% | viability, T/C [35]: 0.85%

Structure (SMILES): CC(C)c1c(-c2ccccc2)nc2c(C#N)c[nH]n2c1=O + NC1CCC(NC2CC2c2ccccc2)CC1
IC50 [1]: > 10 µM | IC50 [2]: > 10 µM | IC50 [3]: > 10 µM | IC50 [4]: > 10 µM | IC50 [5]: > 10 µM | viability, T/C [6]: 87.4% | viability, T/C [7]: 89.5% | viability, T/C [8]: 88.8% | viability, T/C [9]: 84.7% | viability, T/C [10]: 79% | viability, T/C [11]: 68.2% | viability, T/C [12]: 84.9% | viability, T/C [13]: 85.5% | viability, T/C [14]: 89.2% | viability, T/C [15]: 78.3% | viability, T/C [16]: 70.9% | viability, T/C [17]: 65% | viability, T/C [18]: 86.3% | viability, T/C [19]: 83.6% | viability, T/C [20]: 89.4% | viability, T/C [21]: 81.7% | viability, T/C [22]: 76.3% | viability, T/C [23]: 62.9% | viability, T/C [24]: 90% | viability, T/C [25]: 86.7% | viability, T/C [26]: 89.1% | viability, T/C [27]: 85.1% | viability, T/C [28]: 74.2% | viability, T/C [29]: 59.6% | viability, T/C [30]: 87.8% | viability, T/C [31]: 84.3% | viability, T/C [32]: 80.7% | viability, T/C [33]: 79.2% | viability, T/C [34]: 66.2% | viability, T/C [35]: 54.5%

Structure (SMILES): CC1COCCN1c1cc(C2(S(C)(=N)=O)CC2)nc(-c2ccnc3[nH]ccc23)n1 (configuration not stated) + NC1CC1c1ccc(-c2cccc(O)c2)cc1
IC50 [1]: 0.564 µM | IC50 [2]: 0.543 µM | IC50 [3]: 0.666 µM | IC50 [4]: 0.587 µM | IC50 [5]: 0.567 µM | viability, T/C [6]: 82.3% | viability, T/C [7]: 93.9% | viability, T/C [8]: 77.7% | viability, T/C [9]: 22.6% | viability, T/C [10]: 15.7% | viability, T/C [11]: 20.8% | viability, T/C [12]: 84% | viability, T/C [13]: 86.3% | viability, T/C [14]: 74.5% | viability, T/C [15]: 22.4% | viability, T/C [16]: 15.2% | viability, T/C [17]: 20.4% | viability, T/C [18]: 83% | viability, T/C [19]: 90.8% | viability, T/C [20]: 87.6% | viability, T/C [21]: 29.7% | viability, T/C [22]: 15.9% | viability, T/C [23]: 16.8% | viability, T/C [24]: 81% | viability, T/C [25]: 80.2% | viability, T/C [26]: 78.5% | viability, T/C [27]: 25.5% | viability, T/C [28]: 14.9% | viability, T/C [29]: 15.3% | viability, T/C [30]: 88.8% | viability, T/C [31]: 102% | viability, T/C [32]: 69.8% | viability, T/C [33]: 30.7% | viability, T/C [34]: 14.9% | viability, T/C [35]: 17.6%
